Molecular target: T1, human adenosine A2b receptor (Homo sapiens, UniProt P29275)
T1 construct: expressed in transfected cells; host or cells: CHO-K1 (Chinese Hamster Ovary) with CRE-luciferase reporter
T1 sequence (P29275 1-332): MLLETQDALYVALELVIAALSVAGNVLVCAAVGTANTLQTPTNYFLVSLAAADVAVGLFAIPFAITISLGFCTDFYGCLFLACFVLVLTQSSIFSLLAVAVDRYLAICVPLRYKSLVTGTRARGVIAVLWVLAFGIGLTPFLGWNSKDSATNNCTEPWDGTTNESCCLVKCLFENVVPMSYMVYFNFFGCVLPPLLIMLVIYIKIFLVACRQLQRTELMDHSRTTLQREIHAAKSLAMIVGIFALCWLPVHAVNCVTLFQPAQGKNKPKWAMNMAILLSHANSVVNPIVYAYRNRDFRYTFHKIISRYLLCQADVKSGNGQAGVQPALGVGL
Assay: Cellular reporter gene (CRE-luciferase) A2b receptor antagonist assay in recombinant CHO-K1 cells stimulated with NECA
Format: cell-based
Conditions: recombinant CHO-K1 cell line, co-incubation with EC50 concentration of NECA, 3 hours, in some cases means, rounded to two significant digits
How it was run: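 CHO-K1 cells expressing human A2b receptor with a CRE-driven firefly luciferase reporter, co-incubated with test compound and NECA at its same-day EC50 concentration. Luminescence read 3 hours after NECA addition.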

For Cc1c(C(=O)N2CCC(O)CC2)sc2c1c(=O)n(CC(C)(O)c1ccccc1)c(=O)n2CCC(F)(F)F (racemic) [Example 105, 3-(2-Hydroxy-2-phenylpropyl)-6-[(4-hydroxypiperidin-1-yl)carbonyl]-5-methyl-1-(3,3,3-trifluoropropyl)thieno[2,3-d]pyrimidine-2,4(1H,3H)-dione], the IC50 was 0.069 µM.

Compound Cc1c(C(=O)N2CCC(O)CC2)sc2c1c(=O)n(CC(C)c1ccccc1)c(=O)n2CCC(F)(F)F (racemic) [Example 43, 6-[(4-Hydroxypiperidin-1-yl)carbonyl]-5-methyl-3-(2-phenylpropyl)-1-(3,3,3-trifluoropropyl)thieno[2,3-d]pyrimidine-2,4(1H,3H)-dione (racemate)] has an IC50 of 0.0063 µM.

Cc1c(C(=O)N2CCC(O)(CO)CC2)sc2c1c(=O)n(CC(F)(F)c1ccccc1)c(=O)n2CCC(F)(F)F [Example 70, 3-(2,2-Difluoro-2-phenylethyl)-6-{[4-hydroxy-4-(hydroxymethyl)piperidin-1-yl]carbonyl}-5-methyl-1-(3,3,3-trifluoropropyl)thieno [2,3-d]pyrimidine-2,4(1H,3H)-dione] was tested, and the IC50 was 0.028 µM.

COCCn1c(=O)n(CC(F)(F)c2ccccc2)c(=O)c2c(C)c(C(=O)N3CCNC(=O)C3)sc21 [Example 94, 3-(2,2-Difluoro-2-phenylethyl)-1-(2-methoxyethyl)-5-methyl-6-[(3-oxopiperazin-1-yl)carbonyl]thieno[2,3-d]pyrimidine-2,4(1H,3H)-dione] was tested, and the IC50 was 0.49 µM.

Cc1c(C(=O)N2CCC(C)(O)CC2)sc2c1c(=O)n(CCc1ccccc1)c(=O)n2CCC(F)(F)F [Example 67, 6-[(4-Hydroxy-4-methylpiperidin-1-yl)carbonyl]-5-methyl-3-(2-phenylethyl)-1-(3,3,3-trifluoropropyl)thieno[2,3-d]pyrimidine-2,4(1H,3H)-dione] was tested, and the IC50 was 0.013 µM.

CCn1c(=O)c2c(C)c(C(=O)N3CCC(O)CC3)sc2n(CCOC)c1=O [Example 20, 3-Ethyl-6-[(4-hydroxypiperidin-1-yl)carbonyl]-1-(2-methoxyethyl)-5-methylthieno[2,3-d]pyrimidine-2,4(1H,3H)-dione] was tested, and the IC50 was 0.34 µM.

CCn1c(=O)c2c(CF)c(C(=O)N3CCC(O)CC3)sc2n(CCC(F)(F)F)c1=O [Example 143, 3-Ethyl-5-(fluoromethyl)-6-[(4-hydroxypiperidin-1-yl)carbonyl]-1-(3,3,3-trifluoropropyl)thieno[2,3-d]pyrimidine-2,4(1H,3H)-dione] showed an IC50 of 0.082 µM.

CCn1c(=O)c2c(C)c(C(=O)N3CCNC(=O)C3(C)C)sc2n(CCC(F)(F)F)c1=O [Example 38, 6-[(2,2-Dimethyl-3-oxopiperazin-1-yl)carbonyl]-3-ethyl-5-methyl-1-(3,3,3-trifluoropropyl)thieno[2,3-d]pyrimidine-2,4(1H,3H)-dione] gave an IC50 of 0.14 µM.

With Cc1c(C(=O)N2CCC(O)CC2)sc2c1c(=O)n(CCc1ccccc1Cl)c(=O)n2CCC=C(F)F [Example 7, 3-[2-(2-Chlorophenyl)ethyl]-1-(4,4-difluorobut-3-en-1-yl)-6-[(4-hydroxypiperidin-1-yl)carbonyl]-5-methylthieno[2,3-d]pyrimidine-2,4(1H,3H)-dione] the IC50 was 0.11 µM.

Cc1c(C(=O)N2CCC(O)CC2)sc2c1c(=O)n(CC(C)c1ccccc1)c(=O)n2CCC(F)(F)F (single isomer, unassigned; enantiomer 2) [Example 45, 6-[(4-Hydroxypiperidin-1-yl)carbonyl]-5-methyl-3-(2-phenylpropyl)-1-(3,3,3-trifluoropropyl)thieno[2,3-d]pyrimidine-2,4(1H,3H)-dione (enantiomer 2)] showed an IC50 of 0.15 µM.

In the case of CCn1c(=O)c2c(C(F)F)c(C(=O)N3CCNC(=O)C3)sc2n(CCC(F)(F)F)c1=O [Example 131, 5-(Difluoromethyl)-3-ethyl-6-[(3-oxopiperazin-1-yl)carbonyl]-1-(3,3,3-trifluoropropyl)thieno[2,3-d]pyrimidine-2,4(1H,3H)-dione], the IC50 is reported as 0.034 µM.

In the case of Cc1c(C(=O)N2CCC(O)CC2)sc2c1c(=O)n(CCc1cccc(F)c1)c(=O)n2CCC(F)(F)F [Example 9, 3-[2-(3-Fluorophenyl)ethyl]-6-[(4-hydroxypiperidin-1-yl)carbonyl]-5-methyl-1-(3,3,3-trifluoropropyl)thieno[2,3-d]pyrimidine-2,4(1H,3H)-dione], the IC50 is reported as 0.052 µM.

For CCn1c(=O)c2c(C)c(C(=O)N3CCC(O)C(O)C3)sc2n(CCC(F)(F)F)c1=O (single isomer, unassigned) [Example 118, 6-[(3,4-Dihydroxypiperidin-1-yl)carbonyl]-3-ethyl-5-methyl-1-(3,3,3-trifluoropropyl)thieno [2,3-d]pyrimidine-2,4(1H,3H)-dione], the IC50 was 0.2 µM.

Compound CCn1c(=O)c2c(C(C)F)c(C(=O)N3CCC(O)CC3)sc2n(CCC(F)(F)F)c1=O (racemic) [Example 145, 3-Ethyl-5-(1-fluoroethyl)-6-[(4-hydroxypiperidin-1-yl)carbonyl]-1-(3,3,3-trifluoropropyl)thieno[2,3-d]pyrimidine-2,4(1H,3H)-dione] has an IC50 of 0.097 µM.

With CCCn1c(=O)c2c(C(F)F)c(C(=O)N3CCC(O)CC3)sc2n(CCC(F)(F)F)c1=O [Example 141, 5-(Difluoromethyl)-6-[(4-hydroxypiperidin-1-yl)carbonyl]-3-propyl-1-(3,3,3-trifluoropropyl)thieno[2,3-d]pyrimidine-2,4(1H,3H)-dione] the IC50 was 0.057 µM.

COC(Cn1c(=O)c2c(C)c(C(=O)N3CCC(O)CC3)sc2n(CCC(F)(F)F)c1=O)C(F)(F)F (single isomer, unassigned) [Example 107, 6-[(4-Hydroxypiperidin-1-yl)carbonyl]-5-methyl-3-(3,3,3-trifluoro-2-methoxypropyl)-1-(3,3,3-trifluoropropyl)thieno[2,3-d]pyrimidine-2,4(1H,3H)-dione] showed an IC50 of 0.045 µM.

With COC(Cn1c(=O)c2c(C)c(C(=O)N3CCC(O)(CO)CC3)sc2n(CCC(F)(F)F)c1=O)C(F)(F)F (single isomer, unassigned) [Example 115, 6-{[4-Hydroxy-4-(hydroxymethyl)piperidin-1-yl]carbonyl}-5-methyl-3-(3,3,3-trifluoro-2-methoxypropyl)-1-(3,3,3-trifluoropropyl)thieno[2,3-d]pyrimidine-2,4(1H,3H)-dione] the IC50 was 0.61 µM.

For CCCn1c(=O)c2c(C)c(C(=O)N3CCC(C)(O)CC3)sc2n(CCC(F)(F)F)c1=O [Example 76, 6-[(4-Hydroxy-4-methylpiperidin-1-yl)carbonyl]-5-methyl-3-propyl-1-(3,3,3-trifluoropropyl)thieno[2,3-d]pyrimidine-2,4(1H,3H)-dione], the IC50 was 0.027 µM.

Compound Cc1c(C(=O)N2CCC(O)CC2)sc2c1c(=O)n(CCC1CC1)c(=O)n2CCC(F)(F)F [Example 63, 3-(2-Cyclopropylethyl)-6-[(4-hydroxypiperidin-1-yl)carbonyl]-5-methyl-1-(3,3,3-trifluoropropyl)thieno[2,3-d]pyrimidine-2,4(1H,3H)-dione] has an IC50 of 0.21 µM.

COC(C)Cn1c(=O)c2c(C)c(C(=O)N3CCC(O)CC3)sc2n(CCC(F)(F)F)c1=O (racemic) [Example 65, 6-[(4-Hydroxypiperidin-1-yl)carbonyl]-3-(2-methoxypropyl)-5-methyl-1-(3,3,3-trifluoropropyl)thieno[2,3-d]pyrimidine-2,4(1H,3H)-dione (racemate)] was tested, and the IC50 was 0.096 µM.

Cc1c(C(=O)N2CCC(C)(O)CC2)sc2c1c(=O)n(CCc1ccccc1)c(=O)n2CCOC(F)(F)F [Example 109, 6-[(4-Hydroxy-4-methylpiperidin-1-yl)carbonyl]-5-methyl-3-(2-phenylethyl)-1-[2-(trifluoromethoxy)ethyl]thieno[2,3-d]pyrimidine-2,4(1H,3H)-dione] gave an IC50 of 0.0039 µM.

CCn1c(=O)c2c(C)c(C(=O)N3CCC(O)C(O)C3)sc2n(CCC(F)(F)F)c1=O (single isomer, unassigned) [Example 117, 6-[(3,4-Dihydroxypiperidin-1-yl)carbonyl]-3-ethyl-5-methyl-1-(3,3,3-trifluoropropyl)thieno [2,3-d]pyrimidine-2,4(1H,3H)-dione] was tested, and the IC50 was 0.14 µM.

For Cc1c(C(=O)N2CCC(O)CC2)sc2c1c(=O)n(CCc1ccccc1F)c(=O)n2CCC=C(F)F [Example 5, 1-(4,4-Difluorobut-3-en-1-yl)-3-[2-(2-fluorophenyl)ethyl]-6-[(4-hydroxypiperidin-1-yl)carbonyl]-5-methylthieno[2,3-d]pyrimidine-2,4(1H,3H)-dione], the IC50 was 0.052 µM.

In the case of Cc1c(C(=O)N2CCC(O)(C(F)(F)F)CC2)sc2c1c(=O)n(CCc1ccccc1)c(=O)n2CCC(F)(F)F [Example 69, 6-{[4-Hydroxy-4-(trifluoromethyl)piperidin-1-yl]carbonyl}-5-methyl-3-(2-phenylethyl)-1-(3,3,3-trifluoropropyl)thieno[2,3-d]pyrimidine-2,4(1H,3H)-dione], the IC50 is reported as 0.06 µM.

Work on COC(Cn1c(=O)c2c(C)c(C(=O)N3CCC(O)CC3)sc2n(CCC(F)(F)F)c1=O)c1ccccc1 (single isomer, unassigned; enantiomer 1) [Example 48, 6-[(4-Hydroxypiperidin-1-yl)carbonyl]-3-(2-methoxy-2-phenylethyl)-5-methyl-1-(3,3,3-trifluoropropyl)thieno[2,3-d]pyrimidine-2,4(1H,3H)-dione (enantiomer 1)] yielded an IC50 of 0.059 µM.

In the case of Cc1c(C(=O)N2CCC(O)CC2)sc2c1c(=O)n(CC1(c3ccccc3)CC1)c(=O)n2CCC(F)(F)F [Example 49, 6-[(4-Hydroxypiperidin-1-yl)carbonyl]-5-methyl-3-[(1-phenylcyclopropyl)methyl]-1-(3,3,3-trifluoropropyl)thieno[2,3-d]pyrimidine-2,4(1H,3H)-dione], the IC50 is reported as 0.068 µM.

— patent publication US9604996B2 (Bayer Pharma Aktiengesellschaft, priority 2013, dated 2017)
